Key:
[1] = Immunogenicity: immunization of mice and serological antibody ELISA; format: in vivo, balb/c female mice; conditions: i.p. 50 μg day 0, 25 μg days 14, 28, 56, 84; end point bleed day 98, serum 1:40; HP201 as capture antigen
Description: Mice and immunization. Female 6- to 8-week old balb/c female mice (Harlan Laboratories, The Netherlands) were used in this study. The targeting unit IS257 (described in Example 3) was dissolved in sterile saline at 0.5 mg/ml and 0.25 mg/ml concentrations. A group of five mice were initially immunized intraperitoneally with 50 μg of targeting unit on day 0. The following immunizations were done with 25 μg of targeting unit on days 14, 28, 56 and 84. Mice were bled from the tail vein on day 0 (preimmune bleed) and thereafter on days 42, 70, and 98 (end point bleed). Blood was collected in tubes and the serum was clarified by centrifugation at 3500 RPM for 7 minutes. […]
Serological antibody assay. […] The wells were washed five times with washing buffer (PBS containing 0.05% Tween20) before incubating for 1 h at 37° C. with 150 μl of a 1:1000 dilution of horseradish peroxidase conjugated Affinipure of goat anti-mouse IgG+IgM (Jackson ImmunoResearch Europe Ltd) and detected with a DAB (3,3′-diaminobentzidine) substrate kit for peroxidase (Vector Laboratories).
As a positive control the horseradish peroxidase conjugated Affinipure goat anti-mouse IgG+IgM (10 μg/ml) was used to coat the wells of Reacti-Bind Maleimide activated clear strip plate overnight at 4° C. […] The plates were read at 405 nm using an ELISA plate reader (ThermoLabsysrems Multiskan EX).

[2] = In vivo cytotoxicity (behaviour after i.v. injection); parameters: species or system Athymic nude mice; conditions: 1 mg i.v. tail vein; observed 30 min after injection and 15 min on following day
Description: The behaviour of mice was observed during 30 min right after injection and during 15 min on the following day (comparison to non-injected mouse). Three mice were taken into this study (plus non-injected controls).

A549 cells = assay: Fluorescent targeting agent staining of fixed cells; format: cell-based, human; conditions: 500 μg/ml in PBS, pH 7.4, added prior to F5M-A49
Description: A549 cells and HeLa cells (described in Example 18) were grown on glass slides, washed with PBS and then fixed with methanol. The fluorescent targeting agent F5M-A49 (described in Example 10) was used to stain these cells as follows: Cells were first blocked with blocking buffer (1.0% BSA, 0.05% Tween20 in PBS, pH 7.4) for one hour at 20° C. The cells on the glass slides were incubated with 20 μl of F5M-A49 targeting agent (50 μg/ml in PBS, pH 7.4). As control, binding of F5M-A49 was competed with 20 μl of IS257 targeting unit (free peptide described in Example 3), 500 μg/ml in PBS, pH 7.4) prior to addition of the targeting agent. As negative controls, cells not incubated with any targeting agent were used. After the staining the cells were mounted on object glasses with mountex (Histolab Products Ltd). After this cells were viewed under a fluorescent microscope (Carl Zeiss Microscopy, Jena, Germany).

[3] = test system: A549, NCI-H23, NCI-H520, NCI-H460, C8161/M1, HeLa, NIH3T3, E10V, SVEC4-10 cell lines; assay: Cytotoxicity assay (MTT); format: cell-based; conditions: 50 μg/ml and 500 μg/ml; 24 h, 48 h (72 h); all nine tested cell lines
Description: In this assay cell lines were exposed to two different concentrations (50 μg/and 500 μg/ml) of IS257 targeting unit (described in Example 3) for two to three days to test the toxicity of the peptides. The measurement of cell viability was done with MTT (Thiazolyl blue, Sigma M-5655 ) tetrazolium salt. MTT is cleaved to water-insoluble formazan dye by the “succinate-tetrazolium reductase” system which is active only in viable cells. After formazan was solubilized by 10% SDS-0.01 M HCl, it was quantified in an ELISA spectrometer (ThermoLabsystems Multiscan EX) at 560 nm. CuSAO2 [trans-bis(salicylaldoximato) copper(II)] (Elo HO, Lumme PO., 1985) 7.5 μg/ml was used as a positive control for 100% toxicity.
Procedure. Cells were trypsinized from the cell culture dish (ø9 cm) with 1 ml of TE for 1-5 minutes and moved to a 50 ml Falcon tube. […]
Then 40 μl of IS257 targeting unit in appropriate medium were added to the wells in two concentrations, so that final concentrations were 50 μg/ml and 500 μg/ml, and the volume of the wells was raised back to 100 μl. […] The next day the cell morphology was analyzed with a microscope. […]
The next day, the MTT assay described above was performed. The viable count (v.c.) was calculated as:
Average toxicated cell absorbance−Average DMEM absorbance=Viable count Average living cell absorbance−Average DMEM absorbance […]

Question: For Ac-ARRPKLD-NH2 [IS257], which “immunogenicity (anti-targeting unit antibodies in serum, ELISA, absorbance at 405 nm)” value [1] is on record?
Answer: The value was “non-immunogenic”.

Question: What about the “toxic effect on mice (behaviour)” value [2] of the same substance?
Answer: The value was “did not have any toxic effect”.

Question: What about the “competition of F5M-A49 binding to A549 cells by free peptide” value (A549 cells) of the same substance?
Answer: The value was “blocked”.

Question: What about the “toxicity to cell lines (viable count, MTT)” value [3] of the same substance?
Answer: Its value is “non-toxic”.

Source: US20090180958A1, “Diagnostic and therapeutic agents” (Karyon-CTT Ltd., priority 2005, published 2009)
